Experimental findings from ChEMBL document CHEMBL3045417, “Structure, Conformation and Absolute Configuration of New Antifeedant Dolabellanes from Trichilia trifolia” (2000) are described below.

The subject of this assay is Sitophilus oryzae. Description: Antifeedant activity against Sitophilus oryzae (rice weevil) assessed as mean diet consumed after 72 hr by flour disk bioassay based feeding choice assay (reference value: 7.61 +/- 1.59 mg/day). Format: functional.

In the case of `C=C(C)[C@H]1CC[C@]2(C)C/C=C(\C)C[C@@H]3C=C(CC[C@@H]12)C(=O)O3`, the Activity was 3.36 mg/day.
For the molecule `C=C(C)[C@H]1CC[C@]2(C)C[C@H](O)[C@]3(C)CCC=C(CC[C@@H]12)C(=O)O3`, the Activity is recorded as 1.03 mg/day.
The same measure for `C=C(C)[C@H]1CC[C@]2(C)C/C=C(\C)CC/C=C(\C(=O)OC)CC[C@@H]12`: 6.74 mg/day; for `C=C(C)[C@H]1CC[C@]2(C)C/C=C(\C)CC/C=C(\C(=O)O)CC[C@@H]12`: 1.17 mg/day; for `C=C(C)[C@H]1CC[C@]2(C)C[C@H](OC(C)=O)[C@]3(C)CCC=C(CC[C@@H]12)C(=O)O3`: 6.61 mg/day.
